Usually Ki stands for a dissociation constant, usually derived from enzyme kinetics or from competition with a known ligand. A higher Ki goes with a looser hold on the target.

The structures appear in SMILES notation. Where a SMILES comes first, the peptide text is derived from it. [ ]: non-standard residue; d: D form. NMeA = CN[C@@H](C)C(=O)O; Nle = CCCC[C@H](N)C(=O)O; Sar = CNCC(=O)O A value given as a limit tells only on which side of the number the result lay.

The experiment deals with T1, Solute carrier family 15 member 1 (Homo sapiens, UniProt P46059).
T1 sequence (P46059 whole entry): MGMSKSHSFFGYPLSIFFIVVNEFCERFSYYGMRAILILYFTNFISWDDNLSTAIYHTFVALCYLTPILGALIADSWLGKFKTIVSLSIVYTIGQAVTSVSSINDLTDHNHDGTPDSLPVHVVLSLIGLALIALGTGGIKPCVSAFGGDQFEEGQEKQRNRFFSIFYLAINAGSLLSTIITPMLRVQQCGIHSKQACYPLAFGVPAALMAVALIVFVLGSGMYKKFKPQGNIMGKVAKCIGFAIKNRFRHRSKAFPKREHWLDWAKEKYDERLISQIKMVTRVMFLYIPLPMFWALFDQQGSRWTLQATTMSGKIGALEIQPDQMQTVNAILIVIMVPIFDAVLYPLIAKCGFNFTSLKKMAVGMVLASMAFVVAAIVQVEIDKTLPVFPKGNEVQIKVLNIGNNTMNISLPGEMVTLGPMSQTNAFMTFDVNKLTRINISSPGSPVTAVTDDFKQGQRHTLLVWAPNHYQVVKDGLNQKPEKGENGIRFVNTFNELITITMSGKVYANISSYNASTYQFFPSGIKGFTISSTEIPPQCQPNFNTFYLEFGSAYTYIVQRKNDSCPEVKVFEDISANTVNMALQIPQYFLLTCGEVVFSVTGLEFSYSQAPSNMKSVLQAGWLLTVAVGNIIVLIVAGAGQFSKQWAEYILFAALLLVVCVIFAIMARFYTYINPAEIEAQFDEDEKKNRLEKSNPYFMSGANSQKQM
Nature of the experiment: Inhibition constant (Ki) for human intestinal peptide carrier.
Regarding `CC(N)C(=O)NC(C)C(=O)O` (stereo unspecified), the Ki is 120 µM. The same measure for `CC(N)C(=O)NCCS(=O)(=O)O` (stereo unspecified): 1200 µM; for `N[C@@H](CO)C(=O)N1CCC[C@H]1C(=O)O` (H-Ser-Pro-OH): 130 µM; for `CNCC(=O)N1CCC[C@H]1C(=O)O` (H-[Sar]-Pro-OH): 1600 µM. Consider `COC(=O)c1cccc(NC(=O)C(C)N)c1` (stereo unspecified), for which the affinity corresponds to a Ki of 6900 µM. The compound `C[C@@H](N)C(=O)N[C@H](C)C(=O)O` (H-[dA]-[dA]-OH) gave a Ki greater than 30000 µM. On to `NCCC(=O)NCC(=O)O`, for which the Ki turned out to be 7300 µM. Compound `C[C@H](N)C(=O)N1CCC[C@H]1C(=O)O` displayed a Ki of 150 µM. The same measure for `C[C@H](N)C(=O)NCC(=O)O` (H-Ala-Gly-OH): 140 µM; for `CN[C@@H](C)C(=O)N[C@@H](C)C(=O)O` (H-[NMeA]-Ala-OH): 1800 µM; for `C[C@H](N)C(=O)N[C@@H](Cc1ccc(O)cc1)C(=O)O` (H-Ala-Tyr-OH): 150 µM.

In turn, `N[C@@H](Cc1cc2ccccc2[nH]1)C(=O)N1CCC[C@H]1C(=O)O` displayed a Ki of 130 µM.

For the compound `NCC(=O)N[C@@H](Cc1c[nH]cn1)C(=O)O` (H-Gly-His-OH), the Ki is 1000 µM. As to `C[C@H](NC(=O)[C@@H](N)Cc1cc2ccccc2[nH]1)C(=O)O`, the affinity, expressed as Ki, was 160 µM. The same measure for `O=C(O)[C@H](CO)NC(=O)[C@@H]1CCCN1` (H-Pro-Ser-OH): 14000 µM; for `CCCC[C@H](N)C(=O)N[C@@H](C)C(=O)O` (H-[Nle]-Ala-OH): 140 µM.

Take `NCC(=O)CCC(=O)O` [AMINOLEVULINIC ACID]: the Ki is 790 µM. Compared with the last compound, the Ki is about 5.6-fold higher.

For the compound `O=C(O)CC[C@H](NC(=O)[C@@H]1CCCN1)C(=O)O` (H-Pro-Glu-OH), the Ki was determined as 20000 µM. The same measure for `CC(N)C(=O)NCCC(=O)O` (stereo unspecified): 2700 µM. In the case of `CC(C)C[C@H](NC(=O)CN)C(=O)O` it was 160 µM; in that of `C[C@H](N)C(=O)N[C@@H](CC(=O)O)C(=O)O` (H-Ala-Asp-OH), 260 µM.

Consider `NCC(=O)NCC(=O)O` (H-Gly-Gly-OH), for which the Ki came to 1000 µM. `NCCCCC(=O)O` [5-AMINOVALERIC ACID] returned a Ki of 17400 µM. In the case of `O=C(O)[C@H](Cc1ccccc1)NC(=O)[C@@H]1CCCN1` (H-Pro-Phe-OH) it was 1900 µM. As for `CC(C)C[C@H](N)C(=O)N[C@@H](C)C(=O)O` [LEU-ALA] (H-Leu-Ala-OH), the Ki worked out at 120 µM. The compound `CC(C)[C@H](N)C(=O)N[C@@H](Cc1ccc(O)cc1)C(=O)O` (H-Val-Tyr-OH) returned a Ki of 100 µM.
